Data from ChEMBL document CHEMBL1687795, “Mathematical modeling to characterize the inoculum effect” (2010).
In brackets after ≈: the same amount, converted by molar mass. Activity calls are given as the source filed them. The calls are words filed in the database; no cut-off is given here.

Experiments:
[1] = tested on: Escherichia coli; test: Antimicrobial activity against Escherichia coli ATCC 25922 by broth macrodilution method; format: functional
[2] = tested on: Escherichia coli; test: Antimicrobial activity against Escherichia coli ATCC 25922 by broth macrodilution method in presence of beta-lactamase inhibitor Tazobactam; format: functional, organism-based
[3] = tested on: Escherichia coli; test: Bactericidal activity against Escherichia coli ATCC 25922 using 10^5 CFU/ml inoculum assessed as log reduction in bacterial count at 4 times MIC after 24 hrs by time-kill study; format: functional
[4] = tested on: Escherichia coli; test: Bactericidal activity against Escherichia coli ATCC 25922 using 10^8 CFU/ml inoculum assessed as log reduction in bacterial count at 256 times MIC after 24 hrs by time-kill study; format: functional

CCN1CCN(C(=O)N[C@@H](C(=O)N[C@@H]2C(=O)N3[C@@H]2SC(C)(C)[C@@H]3C(=O)O)c2ccccc2)C(=O)C1=O [PIPERACILLIN]
MBC [1]: 2 µg/mL (≈ 3.86 µM) | MIC [1]: 2 µg/mL (≈ 3.86 µM) | Activity [2]: Active | FC [3]: >2 | FC [4]: >2
